What was measured:
Assay type in all cases: in vivo
[1] = system: Rice (cultivar: Nipponbare); assay: Test Example 1: promotion of root growth in hydroponics of rice; details: 1 ppm, 3 days germination + 3 days cultivation, average of 4 or 5 individuals
Protocol: Evaluation Test for Promotion of Root Growth in Hydroponics of Rice Rice (cultivar: Nipponbare) A 1/10,000 volume of each DMSO solution containing each of the present compounds 1 to 4 at 10,000 ppm was added to a Hoagland solution for hydroponics (Hoagland and Amon, California Agricultural Experiment Station 1950 Circular 347 pp. 34) at ¼ concentration to obtain a solution for hydroponics containing each of the present compounds 1 to 4 at 1 ppm. These solutions were used in the treated-group. In a non-treated group, a solution for hydroponics obtained by adding a Hoagland solution for hydroponics at ¼ concentration to a 1/10,000 volume of DMSO was used. The rice seeds were immersed in an aqueous solution of 1% sodium hypochlorite for 10 minutes, followed by 70% ethanol solution to sterilize their surfaces. After that, the seeds were washed with distilled water. The sterilized seeds were immersed in each solution for hydroponics containing the test compound at 1 ppm, and incubated at a temperature of 28° C. for 3 days under dark conditions to stimulate the germination of the seeds. Then, 30 ml of each solution for hydroponics containing the test compound at 1 ppm was dispensed into a plastic tube (20 mm in diameter×113 mm in height) covered with a cardboard on the lateral surface for blocking a light. A float made of a styrene board and a vinyl mesh was placed on the water surface of each solution for hydroponics, and the rice seeds obtained after the stimulation of germination were placed on the float. The seeds were cultivated for 3 days under the conditions of an illuminance of 4,000 lux at the top of the tube, a temperature of 26° C., a humidity of 50%, and a day length of 16 hours. The root length of the rice seedlings obtained after the cultivation was measured by using WinRHIZO system (manufactured by REGENT INSTRUMENTS). The average value of the root length in the treated group was calculated from the measurement values of 4 or 5 individuals. As a result, the root length in the treated group, wherein the plants were treated with the present compound 1, 2, 3 or 4 (at a concentration of 1 ppm in each case), was much longer than that in the non-treated group.

[2] = system: Benthamiana tobacco (Nicotiana benthamiana); assay: Test Example 9: reduction of low-temperature stress in hydroponics of tobacco; details: tobacco seedlings, medium with 0.1 ppm compound for 7 days; low-temperature stress 1.5±1.0° C. 7 days, then 3 days at 22° C.
Protocol: Evaluation Test for Reduction of Low-Temperature Stress in Hydroponics of Tobacco (Nicotiana benthamiana) Benthamiana tobacco (Nicotiana benthamiana) DMSO solutions containing each of the present compounds 1, 4 and 5 at a concentration of 100 ppm were prepared. […] These media were used in the treated-group. In a non-treated group, a medium obtained by adding a 1/1,000 volume of DMSO to a Murashige-and-Skoog medium at ½ concentration was used. The seeds of tobacco (Nicotiana benthamiana) were sown on 5 μL of the medium, and incubated at 22° C. overnight. Thereto was added 45 μL of a medium containing each present compound at a concentration of 0.1 ppm, and cultivated for 7 days under the conditions of an illuminance of 4,000 lux, a temperature of 22° C. and a day length of 16 hours, thereby treating the seedlings of tobacco (Nicotiana benthamiana) with the test compound. In the non-treated group, 45 μL of a medium obtained by adding a 1/1,000 volume of DMSO to a Murashige-and-Skoog medium at ½ concentration was added, and treated in the same manner as above. The seedlings of tobacco (Nicotiana benthamiana) treated with the present compounds were cultivated for 7 days under the conditions of an illuminance of 2,000 lux, a temperature of 1.5±1.0° C., and a day length of 16 hours, thereby subjecting to low-temperature stress treatment. The plants of tobacco (Nicotiana benthamiana) subjected to low-temperature stress treatment was cultivated for 3 days under the conditions of an illuminance of 4,000 lux, a temperature of 22° C., and a day length of 16 hours, and then the green leaf area of the plants was visually evaluated. Completely dead plant was scored as 0, the plant without low-temperature stress treatment was scored as 5, the green area was rated on a 6-point scale in ⅕ increments, and the score of not less than 1 was regarded as effective in reducing the stress. As a result of visual evaluation, the green leaf area of plants in the treated group, wherein the plants were treated with the present compound 1, 4 or 5 was much larger than that in the non-treated group.

[3] = system: Rice (cultivar: Nipponbare); assay: Test Example 8: promotion of root growth in hydroponics of rice; details: 1 ppm, 3 days germination + 3 days cultivation, average of 4 or 5 individuals
Protocol: Evaluation Test for Promotion of Root Growth in Hydroponics of Rice Rice (cultivar: Nipponbare) A 1/10,000 volume of a DMSO solution containing the present compound 5 at 10,000 ppm was added to a Hoagland solution for hydroponics (Hoagland and Amon, California Agricultural Experiment Station 1950 Circular 347 pp. 34) at ¼ concentration to obtain a solution for hydroponics containing the present compound 5 at 1 ppm. The solution was used in the treated-group. In a non-treated group, a solution for hydroponics obtained by adding a Hoagland solution for hydroponics at ¼ concentration to a 1/10,000 volume of DMSO was used. The rice seeds were immersed in an aqueous solution of 1% sodium hypochlorite for 10 minutes, followed by 70% ethanol solution to sterilize their surfaces. After that, the seeds were washed with distilled water. The sterilized seeds were immersed in the solution for hydroponics containing the test compound at the given concentration, and incubated at a temperature of 28° C. for 3 days under dark conditions to stimulate the germination of the seeds. […] The root length of the rice seedlings obtained after the cultivation was measured by using WinRHIZO system (manufactured by REGENT INSTRUMENTS). The average value of the root length in the treated group was calculated from the measurement values of 4 or 5 individuals. […]

For `COC(=O)c1cc2ccc(C(F)(F)F)cc2s1` [compound 2], the “root length of the rice seedlings vs non-treated group” value (“root length … vs non-treated group” below) [1] was “much longer”.
`COC(=O)c1cc2c(C(F)(F)F)cccc2s1` [compound 3] was tested, and the “root length … vs non-treated group” value [1] was “much longer”.
With `COC(=O)c1cc2cccc(C(F)(F)F)c2s1` [compound 4] the “root length … vs non-treated group” value [1] was “much longer” and the “green leaf area of plants (visual evaluation) vs non-treated group” value [2] was “much larger”.
`CCOC(=O)c1cc2cc(C(F)(F)F)ccc2s1` [compound 5] was tested, and the “root length … vs non-treated group” value [3] was “much longer” and the “green leaf area of plants (visual evaluation) vs non-treated group” value [2] was “much larger”.

From patent publication US9119396B2, “Method for promoting plant growth” (SUMITOMO CHEMICAL COMPANY, LIMITED, priority 2011, dated 2015)
